Reference: article PMC6696095, “Purification and Characterization of Ornithine Decarboxylase from Aspergillus terreus; Kinetics of Inhibition by Various Inhibitors” (Molecules, 2019)
“And” between values parts separate entries of the source, which are not always exact repeats. Equal values may be shown once. Read-outs that look alike come from different tables or passages of the source. One block for each compound: values may come before it.

How the values were obtained:
A. terreus ODC [1] = biological target: T1, A. terreus ODC (Aspergillus terreus, UniProt A0ACN5CWH9); assay: Effect of inhibitors on activity of purified A. terreus ODC (residual activity, standard TNBS assay); format: biochemical; details: for activity at 5 µg/mL / activity at 40 µg/mL / activity at 200 µg/mL / activity at 400 µg/mL: read-out: Relative Activity (%); for Relative Activity (%): enzyme preincubated 2 h, then L-ornithine, residual ODC activity; for IC50: 2 h preincubation
From the text: The amino acid identity of the active sites implicated in the catalysis of A. terreus ODC has been scrutinized by the response to suicide inhibitors, namely propargylgycine (PPG), guanidine thiocyanate, hydroxylamine, iodoacetamide, DTNB, MBTH and curcumin. […] Consistently, curcumin has been extensively reported a strong inhibitor to the activity of tumor cells ODC, modulating the cellular polyamine metabolism. Elevated polyamine synthesis was recognized as profound compounds for survival and rapid proliferation of tumor cells, thus, targeting the ODC, rate limiting enzyme of polyamine synthesis, has been considered as powerful chemopreventive therapy for tumor cells. […] The enzyme irreversible inactivation by carbonyl reagents such as PPG, ensures the PLP dependence of these enzymes.
(§1) The activity of ODC was determined based on the amount of released putrescine using 2,4,6-tri-nitrobenzene sulfonic acid (TNBS) reagent. […] The reaction was stopped by 10% TCA then neutralized by adding adequate amount of 2N NaOH. 1-Pentanol (2 mL) was added was added to the reaction mixture which was subsequently vortexed for 1 min and centrifuged at 5000 rpm for 5 min. The upper layer was transferred into a new tube, combined with an equal volume of 0.1 M sodium borate (pH 8.0). After vigorously mixing, 500 µL of TNBS (10 mM) reagent was added, subjected to 1 min vortex before adding 2 mL DMSO, and centrifuging at 6000 rpm for 5 min and left to separate into two layers. The upper layer containing TNP-putrescine-TNP was collected by micropipette and the absorbance at λ = 420 nm will reveal putrescine concentration based on a parallel measurement of authentic putrescine at the same conditions. The enzyme protein concentration was measured by Folinʹs reagent, comparing to a known concentration of bovine serum albumin.
Active site prediction using amino acids analogues has been recognized as one of the mechanisms for interrogation of enzymatic identity. The influence of various inhibitors namely 5,5′-dithiobis-2-nitrobenzoic acid, 3-methyl-2-benzothiazolinone-hydrazone, guanidine thiocyanate, iodoacetamide, hydroxylamine, propargylglycine and curcumin on the activity of purified ODC was estimated. The enzyme was incubated with different inhibitor concentrations (5, 40, 200, 400 µg/mL) for 2 h at 30 °C, then amended with the substrate, and the residual activity of the enzyme were determined by the standard assay. The inhibitory kinetic parameters were measured according to El-Sayed et al.

A. terreus ODC [2] = biological target: T1, A. terreus ODC; assay: Substrate specificity of purified ODC, diacetyl monoxime assay (citrulline / imino groups); format: biochemical; details: for Diacetyl Monoxime Assay Activity: amino acid as substrate
Procedure: (§2) The specificity of purified A. terreus ODC towards various amino acids as substrates has been evaluated based on the putative enzymatic byproducts such as ammonia, citrulline and putrescine (see Materials and Methods). […] The putative deaminating, deiminating and decarboxylating activity of ODC for each substrate was assessed (Table 3).
(§3) The putative enzymatic byproducts such as ammonia, citrulline and putrescine were determined by Nessler’s reagent, diacetylmonoxime reagent and TNBS [42], respectively, under standard conditions. The kinetic parameters of A. terreus ODC; Michalis-Menten constant (Km), maximum velocity (Vmax), and turnover number (kcat) and catalytic efficiency towards the most hydrolysable amino acids were calculated.

A. terreus ODC [3] = biological target: T1, A. terreus ODC; assay: Substrate specificity of purified ODC, TNBS assay (putrescine); format: biochemical; details: released putrescine; for TNBS Assay Activity: amino acid as substrate; for TNBS Assay Relative Activity: normalized to L-ornithine
Procedure: as §2, §1, §3

A. terreus ODC [4] = biological target: T1, A. terreus ODC; assay: Substrate specificity of purified ODC, Nessler's assay (ammonia); format: biochemical; details: for Nessler's Assay Activity: amino acid as substrate; for Nessler's Assay Relative Activity: normalized to L-ornithine as standard substrate
Procedure: as §2, §3

A. terreus ODC [5] = biological target: T1, A. terreus ODC; assay: Kinetic parameters of A. terreus ODC for substrates; details: substrate of A. terreus ODC
Procedure: as §2, §3

A. terreus ODC [6] = biological target: T1, A. terreus ODC; format: biochemical; details: Nessler's, diacetylmonoxime and TNBS assays
Procedure: as §2, §3

N=C(N)NCCC[C@H](N)C(=O)O = assay: purified protein, by the assay type; details: other: substrate of A. terreus ODC
Procedure: (§4) The putative enzymatic byproducts such as ammonia, citrulline and putrescine were determined by Nessler’s reagent [66], diacetylmonoxime reagent [36] and TNBS [42], respectively, under standard conditions. The kinetic parameters of A. terreus ODC; Michalis-Menten constant (Km), maximum velocity (Vmax), and turnover number (kcat) and catalytic efficiency towards the most hydrolysable amino acids were calculated.
NCCCC[C@H](N)C(=O)O = assay: purified protein, by the assay type; details: other: substrate of A. terreus ODC
Procedure: as §4

activity at 5 µg/mL (A. terreus ODC [1]): 41%
activity at 40 µg/mL (A. terreus ODC [1]): 29%
activity at 200 µg/mL (A. terreus ODC [1]): 12%
activity at 400 µg/mL (A. terreus ODC [1]): 0%
Compound: Cn1c(=NN)sc2ccccc21 [3-Methyl-2-benzo-thiazolinone hydrazone, 3-methyl-2-benzothiazolinone-hydrazone]

Relative Activity (%) (A. terreus ODC [1]; inhibitor 5 µg/mL): 39%
Relative Activity (%) (A. terreus ODC [1]; inhibitor 40 µg/mL): 27%
Relative Activity (%) (A. terreus ODC [1]; inhibitor 200 µg/mL): 14%
Relative Activity (%) (A. terreus ODC [1]; inhibitor 400 µg/mL): 5.8%
Compound: O=C(O)c1cc(SSc2ccc([N+](=O)[O-])c(C(=O)O)c2)ccc1[N+](=O)[O-] [5-5′-Dithiobis-(2-nitro-benzoic acid), 5,5′-dithiobis-2-nitrobenzoic acid]

IC50 (A. terreus ODC [1]; IC50, purified A. terreus ODC): ~109 nM and 109 nM
activity at 5 µg/mL (A. terreus ODC [1]): 11%
activity at 40 µg/mL (A. terreus ODC [1]): 0%
activity at 200 µg/mL (A. terreus ODC [1]): 0%
activity at 400 µg/mL (A. terreus ODC [1]): 0%
Compound: COc1cc(/C=C/C(=O)CC(=O)/C=C/c2ccc(O)c(OC)c2)ccc1O [Curcumin, diferuloylmethane]

Relative Activity (%) (A. terreus ODC [1]; inhibitor 5 µg/mL): 8%
Relative Activity (%) (A. terreus ODC [1]; inhibitor 40 µg/mL): 0.1%
Relative Activity (%) (A. terreus ODC [1]; inhibitor 200 µg/mL): 0%
Relative Activity (%) (A. terreus ODC [1]; inhibitor 400 µg/mL): 0%
IC50 (A. terreus ODC [1]; purified A. terreus ODC): 0.02 µg/mL
Compound: NCCCC(N)(C(=O)O)C(F)F (stereo not drawn) [DFMO, Difluoromethylornithine]

Compound: N#CS.N=C(N)N [Guanidine thiocyanate, guanidine thiocyanate]
Relative Activity (%) (A. terreus ODC [1]; inhibitor 5 µg/mL): 90%
Relative Activity (%) (A. terreus ODC [1]; inhibitor 40 µg/mL): 60%
Relative Activity (%) (A. terreus ODC [1]; inhibitor 200 µg/mL): 30%

Relative Activity (%) (A. terreus ODC [1]; inhibitor 5 µg/mL): 45%
Relative Activity (%) (A. terreus ODC [1]; inhibitor 40 µg/mL): 13%
Relative Activity (%) (A. terreus ODC [1]; inhibitor 200 µg/mL): 0%
Relative Activity (%) (A. terreus ODC [1]; inhibitor 400 µg/mL): 0%
Compound: NO [Hydroxylamine, hydroxylamine]

Compound: NC(=O)CI [Iodoacetamide, iodoacetamide]
Relative Activity (%) (A. terreus ODC [1]; inhibitor 5 µg/mL): 37%
Relative Activity (%) (A. terreus ODC [1]; inhibitor 40 µg/mL): 19%
Relative Activity (%) (A. terreus ODC [1]; inhibitor 200 µg/mL): 10%
Relative Activity (%) (A. terreus ODC [1]; inhibitor 400 µg/mL): 0%

Compound: N=C(N)NCCC[C@H](N)C(=O)O [L-Arginine]
Diacetyl Monoxime Assay Relative Activity (A. terreus ODC [2]): 194%
Diacetyl Monoxime Assay Activity (A. terreus ODC [2]; deiminating activity): 0.0068 µmol/mg/min
TNBS Assay Activity (A. terreus ODC [3]): 0.34 µmol/mg/min
TNBS Assay Relative Activity (A. terreus ODC [3]): 16.2%
Nessler's Assay Activity (A. terreus ODC [4]): 0.35 µmol/mg/min
Nessler's Assay Relative Activity (A. terreus ODC [4]): 19%

Compound: NCCCC[C@H](N)C(=O)O [L-Lysine]
Diacetyl Monoxime Assay Activity (A. terreus ODC [2]; deiminating activity): 0.0045 µmol/mg/min
Diacetyl Monoxime Assay Relative Activity (A. terreus ODC [2]; deiminating activity, normalized to L-ornithine): 128%
TNBS Assay Activity (A. terreus ODC [3]): 0.44 µmol/mg/min
TNBS Assay Relative Activity (A. terreus ODC [3]): 20.9%
Nessler's Assay Activity (A. terreus ODC [4]): 0 µmol/mg/min
Nessler's Assay Relative Activity (A. terreus ODC [4]): 0%

Compound: NCCC[C@H](N)C(=O)O [L-Ornithine]
Diacetyl Monoxime Assay Activity (A. terreus ODC [2]; deiminating activity): 0.0035 µmol/mg/min
TNBS Assay Activity (A. terreus ODC [3]): 2.1 µmol/mg/min
Km (A. terreus ODC [5]): 950 µM
Vmax (A. terreus ODC [5]): 4.8 µmol/mg/min
Km (A. terreus ODC [5]; listed as L-ornithine): 900 µM
Nessler's Assay Activity (A. terreus ODC [4]): 1.87 µmol/mg/min

Compound: C[C@H](N)C(=O)O [L-alanine]
affinity of purified ODC towards the amino acid as substrate (A. terreus ODC [6]): no detectable affinity

Compound: NC(=O)C[C@H](N)C(=O)O [L-asparagine]
affinity of purified ODC towards the amino acid as substrate (A. terreus ODC [6]): no detectable affinity

Compound: N[C@@H](CS)C(=O)O [L-cysteine]
affinity of purified ODC towards the amino acid as substrate (A. terreus ODC [6]): no detectable affinity

Compound: NC(=O)CC[C@H](N)C(=O)O [L-glutamine]
affinity of purified ODC towards the amino acid as substrate (A. terreus ODC [6]): no detectable affinity

Compound: NCC(=O)O [L-glycine]
affinity of purified ODC towards the amino acid as substrate (A. terreus ODC [6]): no detectable affinity

Compound: CSCC[C@H](N)C(=O)O [L-methionine]
affinity of purified ODC towards the amino acid as substrate (A. terreus ODC [6]): no detectable affinity

Compound: N[C@@H](Cc1c[nH]c2ccccc12)C(=O)O [L-tryptophan]
affinity of purified ODC towards the amino acid as substrate (A. terreus ODC [6]): no detectable affinity

Compound: N[C@@H](Cc1ccc(O)cc1)C(=O)O [L-tyrosine]
affinity of purified ODC towards the amino acid as substrate (A. terreus ODC [6]): no detectable affinity

Compound: CC(C)[C@H](N)C(=O)O [L-valine]
affinity of purified ODC towards the amino acid as substrate (A. terreus ODC [6]): no detectable affinity

Compound: CC(=O)N[C@@H]1[C@@H](O)[C@H](O)[C@@H](CO)O[C@H]1O [N-acetylglucosamine]
affinity of purified ODC towards the amino acid as substrate (A. terreus ODC [6]): no detectable affinity

Relative Activity (%) (A. terreus ODC [1]; inhibitor 5 µg/mL): 89%
Relative Activity (%) (A. terreus ODC [1]; inhibitor 40 µg/mL): 30%
Relative Activity (%) (A. terreus ODC [1]; inhibitor 200 µg/mL): 17%
Relative Activity (%) (A. terreus ODC [1]; inhibitor 400 µg/mL): 6%
IC50 (A. terreus ODC [1]; purified A. terreus ODC): 20.9 µg/mL
Compound: C#CCC(N)C(=O)O (stereo not drawn) [Propargylgycine, propargylglycine]

Compound: A. terreus ODC (Aspergillus terreus NIH2624)
Km (N=C(N)NCCC[C@H](N)C(=O)O): 1400 µM
kcat/Km (N=C(N)NCCC[C@H](N)C(=O)O): 0.0246 M⁻¹ s⁻¹
Km (NCCCC[C@H](N)C(=O)O): 1340 µM
kcat/Km (NCCCC[C@H](N)C(=O)O): 0.0283 M⁻¹ s⁻¹
